Assay results taken from US20170049786A1, “MTOR PATHWAY INHIBITORS FOR TREATING OCULAR DISORDERS” (Santen Pharmaceutical Co., Ltd., priority 2009, published 2017).
“And” between values parts separate entries of the source, which are not always exact repeats. Equal values may be shown once. Read-outs that look alike come from different tables or passages of the source. Blank lines part the entries; values can stand above or below the compound they belong to.

Legend:
[1] = Solubility profiles of therapeutic agents (Table 71-1); conditions: for physical state when formulated in PEG400: 3% therapeutic agent and 97% PEG400
Method: Various therapeutic agents (e.g., rapalogs and/or mTOR inhibitors) were formulated as liquid solutions or suspensions for ophthalmic administration by injection. The therapeutic agents of exemplary formulations were as follows: everolimus, sirolimus, temsirolimus, zotarolimus, PP242, PP30 and palomid 529.
Liquid formulations containing 3% therapeutic agent (everolimus, sirolimus, temsirolimus or zotarolimus) and 97% PEG400 were prepared.

[2] = tested on: Human umbilical vein endothelial cells (HUVEC); test: Inhibition of VEGF-induced proliferation, BrdU incorporation; assay type: cell-based; conditions: for IC50: Homo sapiens, 12.5 ng/mL VEGF
Method: The objective of this study was to evaluate the anti-proliferative effects of various therapeutic agents (everolimus, sirolimus, tacrolimus, temsirolimus, zotarolimus, PP242, PP30, Palomid 529, WYE-354, and KU-0063794) by measuring bromodeoxyuridine (BrdU) incorporation into cellular DNA. The therapeutic agents were dissolved directly into class A vials in less than 1% DMSO. Human umbilical vein endothelial cells (HUVEC) were obtained from Lonza (Catalog No. CC-2517). Vascular endothelial growth factor (VEGF) was obtained from R&D Systems (Catalog No. 293-VE-010). A BrdU Assay kit was obtained from Calbiochem (Catalog No. Q1A58). The inhibitory effect of rapamycin on HUVEC proliferation has been described (Kwon et al., Invest Opththamol Vis Sci, 46:454-4699, 2005).
Early passage HUVEC were plated at 2,000 cells/well in 96-well plates for 24 hours. The cells were then starved for 24 hours by replacing medium with medium lacking serum and HUVEC medium growth factors. After overnight starvation, wells were inoculated with (i) medium containing 2.5% serum and 12.5 ng/mL VEGF, (ii) medium with 12.5 ng/mL VEGF, (iii) medium with 2.5% serum or (iv) medium without serum or VEGF. Control compounds and test compounds were added at eight to eleven concentrations of each compound. All wells were set up in four replicates. BrdU was added to the medium 72 hours after feeding. After the overnight labeling, the cells were assayed according the manufacturers instructions and the plates were read at OD450. Average absorbance for replicate wells was used to calculate IC50 for the compounds of Table 72-1.

[3] = cited from earlier work
in vivo = conditions: rabbit
Method: Both eyes (or one eye depending on the study) of each animal received one or two drops (40 μl per drop) of the studied formulations using a calibrated pipette on day 0 (day of dosing).
For Tables 3-6, the solution of Example 46 (formulation #340) was administered two drops twice a day on both eyes, one time for Group I, two drops once a day on one eye, one time for Group II, and two drops once a day on both eyes for 6 days in Group III. In Group II, the right eye (OD) but not the left eye (OS) received eye drops. In a further study, one drop of the formulation #340 (40 μL containing 880 μg rapamycin) was administered on day zero.
For FIGS. 5 and 6, the aqueous rapamycin-containing formulations #329 and #330 of Table 1 were administered two drops once or twice a day for up to 28 days. For FIGS. 7 and 8, the aqueous rapamycin-containing formulations #331 and #332 of Table 1 were administered two drops twice a day for 6 days.
For FIG. 10A-B one drop of an aqueous or a non-aqueous formulation containing about 0.2% rapamycin were administered to both eyes of rabbit subjects once a day for six days (day 0 to day 6). As used herein, the terms “aqueous” and “hydrophilic” refer to formulations in which the dominant component is an aqueous compound such as water (e.g., formulations #342 and #342 of Table 1), while the terms “non-aqueous” and “lipophilic” refer to formulation in which the dominant component is a non-aqueous compound such as PEG 400 (e.g., formulations #344 and #345 of Table 1). Rapamycin concentrations in the cornea, retina choroid and blood were measured at day 7 and day 14.
For FIG. 11 one drop of a non-aqueous formulation containing about 0.2% rapamycin (e.g., formulations #344 or #345) was administered to both eyes of rabbit subjects once a day on day 0, 7, 14 and 21. Rapamycin concentrations in the cornea, retina choroid and aqueous humor were measured on days 3, 10, 17, 24 and 28.

[4] = Pilot pharmacokinetic study, intravitreal injection of rapalog/mTOR inhibitor formulations; concentration in the vitreous (FIGS. 17, 19, 20); conditions: 330 mcg by intravitreal injection of 10 μl of 3% agent in 97% PEG400; FIG. 17
Method: In a pilot pharmacokinetic study, 330 mcg of the therapeutic agent was administered to rabbits by intravitreal injection of a 10 μl volume.
In a pilot pharmacokinetic study, 220 mcg of the therapeutic agent was administered to rabbits by intravitreal injection of a 10 μl volume.

[5] = tested on: retinal and choroidal neovascularization (RNV and CNV); test: Inhibition of retinal and choroidal neovascularization in vivo (subretinal […]/bFGF/VEGF model, fluorescein angiography); parameters: species or system New Zealand white rabbits; conditions: six microliter intravitreal dose of 2% agent in 4% ethanol, 94% PEG400 on Day 8; compared with 50 microliter AVASTIN (25 mg/ml)
Method: The objective of this study was to evaluate the effects of various therapeutic agents (everolimus, sirolimus, temsirolimus, and zotarolimus) on retinal and choroidal neovascularization (RNV and CNV) in a rabbit model (Qiu et al., Exp Eye Res, 83:141-152, 2006). Liquid formulations containing 2% (w/w) of the therapeutic agents were prepared in 4% (w/w) ethanol, and 94% (w/w) PEG400. As a positive control, a formulation containing 25 mg/ml AVASTIN was used. As a negative control, vehicle (4% ethanol, 96% PEG400) was used. Recombinant human basic fibroblast growth factor (bFGF) and vascular endothelial growth factor (VEGF) were obtained from R&D Systems. New Zealand white rabbits were used in this study.
On Day 1, the right eye of each animal received a subretinal injection of 10-20 μL of […] containing 10 μg/0.1 mL b-FGF and 2 μg/0.1 mL VEGF. […]-containing formulations are kept on ice until administered. Briefly, the conjunctiva was opened and a small slit in the sclera was made to expose the vitreous. A cannula connected to a tuberculin syringe was inserted into the subretinal space and the […]/growth factor combination was delivered. The scleral and conjunctival opening were closed with a 7-0 Vicryl suture. […]

- Solubility, PEG 400 [1]: >13 mg/g and <22 mg/g
Structure (SMILES): CC(C)n1nc(-c2cccc(C(=O)NC3=NCCS3)c2)c2c(N)ncnc21 [PP30]

Structure (SMILES): CC(C)n1nc(-c2cc3cc(O)ccc3[nH]2)c2c(N)ncnc21 [PP242, 2-(4-Amino-1-isopropyl-1H-pyrazolo[3,4-d]pyrimidin-3-yl)-1H-indol-5-ol]
- Solubility, PEG 400 [1]: >126 mg/g

- Solubility, PEG 400 [1]: >624 mg/g
- physical state when formulated in PEG400 [1]: went into solution
Structure (SMILES): CO[C@H]1C[C@@H]2CC[C@@H](C)[C@@](O)(O2)C(=O)C(=O)N2CCCC[C@H]2C(=O)O[C@H]([C@H](C)C[C@@H]2CC[C@@H](OCCO)[C@H](OC)C2)CC(=O)[C@H](C)/C=C(\C)[C@@H](O)[C@@H](OC)C(=O)[C@H](C)C[C@H](C)/C=C/C=C/C=C/1C [everolimus]
- IC50 [2]: 22.4 nM
- Solubility, Aqueous ([3]; literature values): 1 to 10.0 µg/mL
- Solubility, DMSO ([3]; literature values): >100 mg/mL
- Solubility, Ethanol ([3]; literature values): >100 mg/mL

Structure (SMILES): COc1ccc(COc2cc3oc(=O)c4cc(C(C)O)ccc4c3cc2OC)cc1 (stereo not shown) [palomid 529, 8-(1-hydroxy-ethyl)-2-methoxy-3-(4-methoxy-benzyloxy)-benzo[c]chromen-6-one]
- potency as inhibitor of VEGF-induced proliferation relative to the other compounds tested [2]: less potent inhibitors of VEGF-induced proliferation than the other compounds tested

- Rapamycin level, Blood (in vivo; 1 day): 2.84 ng/mL
- Rapamycin level, Blood (in vivo; 3 day): 27.29 ng/mL
- concentration at 1 day (in vivo; Rapamycin level, Blood): 4.63 ng/mL
- concentration at 3 day (in vivo; Rapamycin level, Blood): 37.1 ng/mL
- concentration at 8 day (in vivo; Rapamycin level, Blood): 15.5 ng/mL
- concentration at 10 day (in vivo; Rapamycin level, Blood): 7.67 ng/mL
- concentration at 12 day (in vivo; Rapamycin level, Blood): 2.88 ng/mL
- concentration at 14 day (in vivo; Rapamycin level, Blood): 48.3 ng/mL
- concentration at 8 day (in vivo; Rapamycin level, Cornea): 169 ng/g
- concentration at 10 day (in vivo; Rapamycin level, Cornea): 110 ng/g
- concentration at 12 day (in vivo; Rapamycin level, Cornea): 97.9 ng/g
- concentration at 14 day (in vivo; Rapamycin level, Cornea): 84.2 ng/g
- Solubility, DMSO [1]: >472 mg/g
- Solubility, PEG 400 [1]: 3 mg/g
- physical state when formulated in PEG400 [1]: suspension
- concentration remaining in the vitreous after a single injection [4]: Sustained concentrations
Structure (SMILES): CO[C@H]1C[C@@H]2CC[C@@H](C)[C@@](O)(O2)C(=O)C(=O)N2CCCC[C@H]2C(=O)O[C@H]([C@H](C)C[C@@H]2CC[C@@H](O)[C@H](OC)C2)CC(=O)[C@H](C)/C=C(\C)[C@@H](O)[C@@H](OC)C(=O)[C@H](C)C[C@H](C)/C=C/C=C/C=C/1C [sirolimus, rapamycin]
- IC50 [2]: 29.5 nM
- Solubility, Ethanol ([3]; literature value): >90 mg/g
- Solubility, Aqueous ([3]; literature values): 1 to 2.6 µg/mL

Structure (SMILES): C=CC[C@@H]1/C=C(\C)C[C@H](C)C[C@H](OC)[C@H]2O[C@@](O)(C(=O)C(=O)N3CCCC[C@H]3C(=O)O[C@H](/C(C)=C/[C@@H]3CC[C@@H](O)[C@H](OC)C3)[C@H](C)[C@@H](O)CC1=O)[C@H](C)C[C@@H]2OC [tacrolimus]
- potency as inhibitor of VEGF-induced proliferation relative to the other compounds tested [2]: less potent inhibitors of VEGF-induced proliferation than the other compounds tested
- IC50 [2]: 324000 nM

Structure (SMILES): CO[C@H]1C[C@@H]2CC[C@@H](C)[C@@](O)(O2)C(=O)C(=O)N2CCCC[C@H]2C(=O)O[C@H]([C@H](C)C[C@@H]2CC[C@@H](OC(=O)C(C)(CO)CO)[C@H](OC)C2)CC(=O)[C@H](C)/C=C(\C)[C@@H](O)[C@@H](OC)C(=O)[C@H](C)C[C@H](C)/C=C/C=C/C=C/1C [temsirolimus]
- IC50 [2]: 15.9 nM
- Solubility, Aqueous ([3]; literature values): 10 to 20 µg/mL
- Solubility, DMSO ([3]; literature values): >200 mg/mL
- Solubility, Ethanol ([3]; literature values): >200 mg/mL

Structure (SMILES): CO[C@H]1C[C@@H]2CC[C@@H](C)[C@@](O)(O2)C(=O)C(=O)N2CCCC[C@H]2C(=O)O[C@H]([C@H](C)C[C@@H]2CC[C@H](n3cnnn3)[C@H](OC)C2)CC(=O)[C@H](C)/C=C(\C)[C@@H](O)[C@@H](OC)C(=O)[C@H](C)C[C@H](C)/C=C/C=C/C=C/1C [zotarolimus]
- IC50 [2]: 1.78 nM
- inhibition of neovascular disease (fluorescein angiography grading) [5]: inhibited neovascular disease to a greater extent than a 50 microliter dose of AVASTIN
- Solubility, DMSO ([3]; literature values): >1 mg/mL
- Solubility, Ethanol ([3]; literature values): >100 mg/mL
- Solubility, Aqueous ([3]; pH 6.5, literature value): 0.47 mcg/ml* pH 6.5
- Solubility, Aqueous ([3]; pH 7.4, literature value): 0.53 mcg/ml* pH 7.4
